Data from patent US5612378A, “Bis-arylsulfonylaminobenzamide derivatives and the use thereof as factor Xa inhibitors” (priority 1995, dated 1997).

Legend:
Factor Xa [1] = biological target: T1, Factor Xa (Homo sapiens, UniProt P00742); assay: In vitro inhibition of purified human factor Xa (hydrolysis of Bz-Ile-Glu-Gly-Arg-pNa); assay type: biochemical; details: purified human enzyme, [Factor Xa]=10 nM, [Bz-Ile-Glu-Gly-Arg-pNa]=26 μM, pH 7.5, 37° C.
T1 construct: purchased Enzyme Research Laboratories, Inc
Experimental: (§1) The ability of the compounds of the present invention to act as inhibitors of thrombin, factor Xa and plasmin catalytic activity was assessed by determining the concentration which inhibited enzyme activity by 50% using purified human enzymes.
All assays are based on the ability of the test compound to inhibit the hydrolysis of a peptide p-nitroanilide substrate. In a typical experiment, appropriate substrate is prepared in DMSO, and diluted into an assay buffer consisting of 50mM HEPES and 130 mM NaCl at a pH of 7.5. The final concentration for each of the substrates is listed below. […] Test compounds are prepared as 1 mg/ml solutions in DMSO, and three additional 10-fold dilutions in DMSO are prepared. Enzyme solutions are prepared at the concentrations listed below in assay buffer.
(§2) Reactions are initiated by the addition of a 20 μL aliquot of enzyme, and the absorbance increase at 405 nm is recorded for 15 minutes. Data corresponding to less than 10% of the total substrate hydrolysis is used in the calculations. The ratio of the velocity (rate of the change in absorbance as a function of time) for a sample containing no inhibitor is divided by the velocity of a sample containing inhibitor, and is plotted as a function of inhibitor concentration. The inverse of the slope is the concentration of inhibitor which produces a 50% decrease in activity of the enzyme. This concentration is referred to as the IC50.
Factor Xa activity was assessed as the ability to hydrolyse the substrate Bz-Ile-Glu-Gly-Arg-pNa, and was obtained from Sigma. […] Final DMSO concentration was 0.3%.

human α-thrombin = human α-thrombin (Homo sapiens, UniProt P00734); assay: In vitro inhibition of purified human thrombin (hydrolysis of Bz-Phe-Val-Arg-pNa); assay type: biochemical; details: inhibitor at 6 μM, [thrombin]=36 nM, [Bz-Phe-Val-Arg-pNa]=66 μM, pH 7.5, 37° C.
Experimental: as §1, with “enzymes. The concentration of added inhibitor that caused a 50% decrease in the initial rate of hydrolysis was defined as the IC50 value.” for “enzymes.”
All assays are based on the ability of the test compound to inhibit the hydrolysis of a peptide p-nitroanilide substrate. In a typical experiment, appropriate substrate is prepared in DMSO, and diluted into an assay buffer consisting of 50mM HEPES and 130 mM NaCl at a pH of 7.5. The final concentration for each of the substrates is listed below. All substrate concentrations are at least 10 fold lower than Km to insure inhibition is competitive. Test compounds are prepared as 1 mg/ml solutions in DMSO, and three additional 10-fold dilutions in DMSO are prepared. Enzyme solutions are prepared at the concentrations listed below in assay buffer.
as §2, with “In a typical IC50 determination, into each well of a 96 well plate is pipetted 280 uL of substrate solution, 10 μL of inhibitor solution, and the plate is allowed to thermally equilibrate at 37° C. in a Molecular Devices Plate Reader for at least 10 minutes. Reactions” for “Reactions”
Thrombin activity was assessed as the ability to hydrolyse the substrate N-benzoyl-Phe-Val-Arg-p-nitroanilide (Bz-Phe-Val-Arg-pNa), and was obtained from Sigma Chemical Company (St. Louis, Mo.). Substrate solutions were prepared at a concentration of 60 μM (60 μM<<Km =1.2 mM) in assay buffer. Final DMSO concentration was 0.3%. […] Final reagent concentrations were: [thrombin]=36 nM, [Bz-Phe-Val-Arg-pNa]=66 μM, [inhibitor]=60 to 0.06 μM.

factor Xa [2] = details: cited from earlier work
[3] = given as adjuncts to thrombolysis; cited from earlier work
smooth muscle cell = details: U.S. Pat. No. 5,385,885; cited from earlier work
experimental restenosis = details: in vivo; cited from earlier work

T1 sequence (P00742 235-488 limits assumed): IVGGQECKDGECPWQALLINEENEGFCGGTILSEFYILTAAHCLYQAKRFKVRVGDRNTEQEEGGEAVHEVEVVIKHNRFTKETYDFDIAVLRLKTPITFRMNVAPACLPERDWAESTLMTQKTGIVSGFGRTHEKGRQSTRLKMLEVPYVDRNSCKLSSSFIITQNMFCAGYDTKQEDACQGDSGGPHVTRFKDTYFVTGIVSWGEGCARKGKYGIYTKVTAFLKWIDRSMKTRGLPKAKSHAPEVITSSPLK
T1 sequence (P00742 41-179 partner limits assumed): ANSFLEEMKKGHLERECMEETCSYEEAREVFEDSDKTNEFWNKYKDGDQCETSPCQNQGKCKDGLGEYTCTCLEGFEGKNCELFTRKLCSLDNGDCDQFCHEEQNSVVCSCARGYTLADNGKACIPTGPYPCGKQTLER

Row | Molecule | IC50 (Factor Xa [1]) | inhibition at 6 µM (human α-thrombin) | inhibition of factor Xa (factor Xa [2]) | clot lysis and reocclusion [3] | smooth muscle cell proliferation inhibitory activity (smooth muscle cell) | reduction of experimental restenosis (experimental restenosis)
1 | O=C(NCc1cccc(CNC(=O)c2cccc(NS(=O)(=O)c3ccc4ccccc4c3)c2)c1)c1cccc(NS(=O)(=O)c2ccc3ccccc3c2)c1 [Example 7, 1,3-di-[3-(2-naphthalenylsulfonylamino)benzamidomethyl]benzene] | 2.4 µM | 20% |  |  |  | 
2 | O=C(NCCCN1CCN(CCCNC(=O)c2cccc(NS(=O)(=O)c3ccc4ccccc4c3)c2)CC1)c1cccc(NS(=O)(=O)c2ccc3ccccc3c2)c1 [Example 6, 1,4-di-[3-(2-naphthalenylsulfonylamino)benzamidopropyl]piperazine] | 5.2 µM | 0% |  |  |  | 
3 | ecotin: The peptide ecotin is another selective, reversible, tight-binding inhibitor of factor Xa |  |  | selective, reversible, tight-binding inhibitor of factor Xa |  |  | 
4 | O=C(NCCCCCNC(=O)c1cccc(NS(=O)(=O)c2ccc3ccccc3c2)c1)c1cccc(NS(=O)(=O)c2ccc3ccccc3c2)c1 [Example 4, 1,5-di[3-(2-naphthalenylsulfonylamino)benzamido]pentane] | 3 µM | 0% |  |  |  | 
5 | TAP: soft tick derived protein TAP (tick anticoagulant peptide) (YNRLCIKPRDWIDECDSNEGGERAYFRNGKGGCDSFWICPEDHTGADYYSSYRDCFNACI; UniProt P17726 1-60, looked up) |  |  |  | accelerated clot lysis and prevented reocclusion | smooth muscle cell proliferation inhibitory activity | reduce experimental restenosis
6 | O=C(NCCCCCCCCNC(=O)c1cccc(NS(=O)(=O)c2ccc3ccccc3c2)c1)c1cccc(NS(=O)(=O)c2ccc3ccccc3c2)c1 [Example 5, 1,8-di[3-(2-naphthalenylsulfonylamino)benzamido]octane] | 2.1 µM | 20% |  |  |  | 
7 | antistasin: leech-derived, 119-amino acid protein antistasin (protein, UniProt P15358 18-136, looked up) Antistasin: QGPFGPGCEEAGCPEGSACNIITDRCTCSGVRCRMHCPHGFQRSRYGCEFCKCRLEPMKATCDISECPEGMMCSRLTNKCDCKIDINCRKTCPNGLKRDKLGCEYCECRPKRKLIPRLS |  |  |  | accelerated clot lysis and prevented reocclusion | smooth muscle cell proliferation inhibitory activity | reduce experimental restenosis
